Legend:
[1] = test system: PC3, a human prostate cancer cell line; assay: MTT toxicity assay in PC3 prostate cancer cells; assay type: cell-based
Description: Toxicity of the dibenzyl butyl lactone derivative (3-[(3,4-dimethoxyphenyl)cyclopentyl], 4-[(3-hydroxyphenol)methyl]oxolan-2-one) in breast cancer cells was evaluated using MTT assay. The MTT toxicity test is a colorimetric assay to measure cells' metabolic activity by serving as a substrate of cellular enzymes that reduce the tetrazolium orange dye, MTT (3-(4,5-Dimethylthiazol-2-yl)-2,5-diphenyltetrazolium bromide) to its insoluble, formazan, giving a purple color. The rate of conversion is directly proportional to cells' mitochondrial metabolic activity via NAD (P) H-dependent cellular oxidoreductase enzymes and serves as a surrogate marker of cell viability.
Cells previously expanded were seeded in 96 well plates at 1.9×10^5 and 9.6×10^4 cells/plate for 24- and 72-hours treatment respectively. This concentration is known to show the best window for the MTT assay, with better sensitivity and low variability.
5 mg of powdered enterolactone, dibenzyl butyl lactone derivative enantiomer A, and dibenzyl butyl lactone derivative enantiomer B were dissolved in 500 μl of DMSO at room temperature. Eight-point curves, ⅓ dilutions (highest concentration 125 μM), were prepared.
Twenty-four hours following the seeding process, the cells were washed once with phosphate buffered saline (PBS) and treated with the respective compounds in cell culture media. Each condition was tested in triplicates. For positive and negative controls, 8 mM methyl methane sulfonate (MMS) and DMSO 100% were used respectively.
Following compound addition, the plates were incubated for 24 and 72 hours. After the treatment period, cells were washed twice with PBS and media was replaced with MTT reagent at 0.5 mg/ml in Dulbecco's modified Eagle medium (DMEM) without phenol red. The plates were gently shaken and incubated for 4 hours. After the incubation the medium was removed and replaced by DMSO. The plates were gently shaken to solubilize the formazan crystals. Absorbance was measured using an Envision multiplate reader at a wavelength of 570 nm.
Toxicity of the dibenzyl butyl lactone derivative (3-[(3,4-dimethoxyphenyl)cyclopentyl], 4-[(3-hydroxyphenol)methyl]oxolan-2-one) in prostate cancer cells was evaluated using MTT assay. The same methods as those used in Example 2 were employed, except the cell line used was PC3, a human prostate cancer cell line, and cell cultures were established in Kaighn's modification of Ham's […] medium.
MTT assay results are shown in Tables 16-21 and expressed as the percentage of cell death after treatment.

telomerase = telomerase (Homo sapiens, UniProt O14746); assay: Q-TRAP telomerase activity in MCF7 breast cancer cells; assay type: cell-based; parameters: allow the enzymatic addition of telomeric DNA repeats by endogenous telomerase; endogenous in cells
Sequence of telomerase (O14746 whole entry): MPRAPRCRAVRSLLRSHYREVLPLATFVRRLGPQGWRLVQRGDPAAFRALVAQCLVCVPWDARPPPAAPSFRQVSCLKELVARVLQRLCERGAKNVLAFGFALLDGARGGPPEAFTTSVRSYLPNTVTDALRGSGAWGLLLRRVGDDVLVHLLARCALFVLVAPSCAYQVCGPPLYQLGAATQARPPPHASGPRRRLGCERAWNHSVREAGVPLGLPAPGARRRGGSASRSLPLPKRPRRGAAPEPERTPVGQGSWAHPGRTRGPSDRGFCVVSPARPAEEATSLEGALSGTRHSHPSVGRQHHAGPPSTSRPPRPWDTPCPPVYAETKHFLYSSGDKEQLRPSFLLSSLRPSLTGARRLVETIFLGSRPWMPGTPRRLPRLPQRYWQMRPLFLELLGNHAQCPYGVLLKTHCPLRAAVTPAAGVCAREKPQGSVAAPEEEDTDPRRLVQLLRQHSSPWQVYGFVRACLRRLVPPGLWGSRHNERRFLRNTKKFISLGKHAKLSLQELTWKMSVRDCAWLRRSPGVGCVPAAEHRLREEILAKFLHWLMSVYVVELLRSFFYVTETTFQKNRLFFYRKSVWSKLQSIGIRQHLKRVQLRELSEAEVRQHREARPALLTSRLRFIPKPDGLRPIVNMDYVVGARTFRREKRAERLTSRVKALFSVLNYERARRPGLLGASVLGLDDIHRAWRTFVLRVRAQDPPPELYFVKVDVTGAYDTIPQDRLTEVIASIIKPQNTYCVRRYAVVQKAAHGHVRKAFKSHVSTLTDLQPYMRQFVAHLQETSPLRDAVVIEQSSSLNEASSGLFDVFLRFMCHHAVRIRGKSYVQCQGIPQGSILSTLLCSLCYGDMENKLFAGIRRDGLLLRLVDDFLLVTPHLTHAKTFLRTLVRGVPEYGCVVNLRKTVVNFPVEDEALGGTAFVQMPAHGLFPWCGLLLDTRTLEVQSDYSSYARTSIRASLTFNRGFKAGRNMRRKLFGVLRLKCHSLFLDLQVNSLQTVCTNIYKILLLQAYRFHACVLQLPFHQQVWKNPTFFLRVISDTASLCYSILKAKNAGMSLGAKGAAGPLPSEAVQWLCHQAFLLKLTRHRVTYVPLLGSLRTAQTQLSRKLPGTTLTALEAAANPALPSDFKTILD
Sequence of telomerase (O60832 whole entry partner): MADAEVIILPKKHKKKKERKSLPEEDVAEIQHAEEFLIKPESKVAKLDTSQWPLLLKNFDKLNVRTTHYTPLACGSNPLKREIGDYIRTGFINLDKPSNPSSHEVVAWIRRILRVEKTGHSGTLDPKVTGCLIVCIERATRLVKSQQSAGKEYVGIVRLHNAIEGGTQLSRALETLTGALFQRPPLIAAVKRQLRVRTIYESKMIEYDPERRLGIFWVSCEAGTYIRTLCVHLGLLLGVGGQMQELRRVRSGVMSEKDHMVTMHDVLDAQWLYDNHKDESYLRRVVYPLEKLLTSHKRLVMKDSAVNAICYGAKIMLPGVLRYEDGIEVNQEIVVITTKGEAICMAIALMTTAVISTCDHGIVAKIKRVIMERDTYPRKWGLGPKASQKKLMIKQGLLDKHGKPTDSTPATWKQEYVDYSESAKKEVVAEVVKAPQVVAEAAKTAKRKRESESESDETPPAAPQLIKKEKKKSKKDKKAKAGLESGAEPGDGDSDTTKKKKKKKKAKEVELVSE
Sequence of telomerase (Q9NPE3 whole entry partner): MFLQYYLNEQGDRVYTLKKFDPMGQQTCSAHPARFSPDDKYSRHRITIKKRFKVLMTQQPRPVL
Sequence of telomerase (Q9NX24 whole entry partner): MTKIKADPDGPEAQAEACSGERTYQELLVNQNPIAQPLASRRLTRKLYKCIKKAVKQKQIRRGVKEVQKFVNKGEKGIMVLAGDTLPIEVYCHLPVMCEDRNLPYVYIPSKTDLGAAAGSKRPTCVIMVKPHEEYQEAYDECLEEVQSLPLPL
Sequence of telomerase (Q9NY12 whole entry partner): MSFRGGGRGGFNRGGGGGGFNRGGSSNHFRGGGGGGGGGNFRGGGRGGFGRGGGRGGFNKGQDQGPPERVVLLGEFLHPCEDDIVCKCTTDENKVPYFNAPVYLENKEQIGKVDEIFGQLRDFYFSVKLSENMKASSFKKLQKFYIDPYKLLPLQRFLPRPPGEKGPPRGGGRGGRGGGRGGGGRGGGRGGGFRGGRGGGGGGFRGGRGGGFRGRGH
Sequence of telomerase (Q9BUR4 whole entry partner): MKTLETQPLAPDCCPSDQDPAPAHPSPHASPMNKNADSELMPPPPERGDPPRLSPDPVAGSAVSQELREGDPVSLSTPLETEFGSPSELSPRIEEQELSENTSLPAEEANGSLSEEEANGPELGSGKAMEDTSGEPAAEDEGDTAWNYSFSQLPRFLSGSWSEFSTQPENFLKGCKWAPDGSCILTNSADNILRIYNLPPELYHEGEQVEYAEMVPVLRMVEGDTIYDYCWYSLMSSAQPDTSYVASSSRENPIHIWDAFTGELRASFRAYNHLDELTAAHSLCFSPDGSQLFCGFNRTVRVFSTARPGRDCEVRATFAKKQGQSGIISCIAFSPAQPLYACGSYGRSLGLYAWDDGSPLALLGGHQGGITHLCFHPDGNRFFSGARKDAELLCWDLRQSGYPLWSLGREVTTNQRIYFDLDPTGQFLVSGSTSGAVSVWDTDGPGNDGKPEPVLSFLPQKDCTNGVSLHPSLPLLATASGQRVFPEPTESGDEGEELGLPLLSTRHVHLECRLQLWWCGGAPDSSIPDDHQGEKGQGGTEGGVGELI

O=C1OCC(Cc2ccc3c(c2)OCO3)/C1=C\c1cccc(O)c1 (single isomer, unassigned) [Enantiomer B, 3-[(3,4-dimethoxyphenyl)cyclopentyl], 4-[(3-hydroxyphenol)methyl]oxolan-2-one]
Cell death #1 (%) ([1]; PC3, 24 hours, 0.06 μM): −14.60%
Cell death #2 (%) ([1]; PC3, 24 hours, 0.06 μM): −12.15%
Cell death #3 (%) ([1]; PC3, 24 hours, 0.06 μM): −1.24%
Cell death (%) MEAN ([1]; PC3, 24 hours, 0.06 μM): −9.33%
Cell death #1 (%) ([1]; PC3, 24 hours, 0.17 μM): −22.81%
Cell death #2 (%) ([1]; PC3, 24 hours, 0.17 μM): −20.24%
Cell death #3 (%) ([1]; PC3, 24 hours, 0.17 μM): −14.35%
Cell death (%) MEAN ([1]; PC3, 24 hours, 0.17 μM): −19.13%
Cell death #1 (%) ([1]; PC3, 24 hours, 0.51 μM): −15.09%
Cell death #2 (%) ([1]; PC3, 24 hours, 0.51 μM): −34.33%
Cell death #3 (%) ([1]; PC3, 24 hours, 0.51 μM): −34.94%
Cell death (%) MEAN ([1]; PC3, 24 hours, 0.51 μM): −28.12%
Cell death #1 (%) ([1]; PC3, 24 hours, 1.54 μM): −58.35%
Cell death #2 (%) ([1]; PC3, 24 hours, 1.54 μM): −51.85%
Cell death #3 (%) ([1]; PC3, 24 hours, 1.54 μM): −43.77%
Cell death (%) MEAN ([1]; PC3, 24 hours, 1.54 μM): −51.32%
Cell death #1 (%) ([1]; PC3, 24 hours, 4.63 μM): −72.93%
Cell death #2 (%) ([1]; PC3, 24 hours, 4.63 μM): −63.74%
Cell death #3 (%) ([1]; PC3, 24 hours, 4.63 μM): −39.60%
Cell death (%) MEAN ([1]; PC3, 24 hours, 4.63 μM): −58.76%
Cell death #1 (%) ([1]; PC3, 24 hours, 13.89 μM): −71.22%
Cell death #2 (%) ([1]; PC3, 24 hours, 13.89 μM): −63.50%
Cell death #3 (%) ([1]; PC3, 24 hours, 13.89 μM): −63.74%
Cell death (%) MEAN ([1]; PC3, 24 hours, 13.89 μM): −66.15%
Cell death #1 (%) ([1]; PC3, 24 hours, 41.67 μM): −68.77%
Cell death #2 (%) ([1]; PC3, 24 hours, 41.67 μM): −35.80%
Cell death #3 (%) ([1]; PC3, 24 hours, 41.67 μM): −33.35%
Cell death (%) MEAN ([1]; PC3, 24 hours, 41.67 μM): −45.97%
Cell death #1 (%) ([1]; PC3, 24 hours, 125.00 μM): 6.23%
Cell death #2 (%) ([1]; PC3, 24 hours, 125.00 μM): 3.54%
Cell death #3 (%) ([1]; PC3, 24 hours, 125.00 μM): 4.64%
Cell death (%) MEAN ([1]; PC3, 24 hours, 125.00 μM): 4.80%
Cell death #1 (%) ([1]; PC3, 72 hours, 0.06 μM): −22.56%
Cell death #2 (%) ([1]; PC3, 72 hours, 0.06 μM): −30.41%
Cell death #3 (%) ([1]; PC3, 72 hours, 0.06 μM): −23.49%
Cell death (%) MEAN ([1]; PC3, 72 hours, 0.06 μM): −25.49%
Cell death #1 (%) ([1]; PC3, 72 hours, 0.17 μM): −33.20%
Cell death #2 (%) ([1]; PC3, 72 hours, 0.17 μM): −39.41%
Cell death #3 (%) ([1]; PC3, 72 hours, 0.17 μM): −29.79%
Cell death (%) MEAN ([1]; PC3, 72 hours, 0.17 μM): −34.13%
Cell death #1 (%) ([1]; PC3, 72 hours, 0.51 μM): −47.57%
Cell death #2 (%) ([1]; PC3, 72 hours, 0.51 μM): −52.84%
Cell death #3 (%) ([1]; PC3, 72 hours, 0.51 μM): −52.74%
Cell death (%) MEAN ([1]; PC3, 72 hours, 0.51 μM): −51.05%
Cell death #1 (%) ([1]; PC3, 72 hours, 1.54 μM): −52.64%
Cell death #2 (%) ([1]; PC3, 72 hours, 1.54 μM): −40.34%
Cell death #3 (%) ([1]; PC3, 72 hours, 1.54 μM): −51.19%
Cell death (%) MEAN ([1]; PC3, 72 hours, 1.54 μM): −48.05%
Cell death #1 (%) ([1]; PC3, 72 hours, 4.63 μM): −45.81%
Cell death #2 (%) ([1]; PC3, 72 hours, 4.63 μM): −40.03%
Cell death #3 (%) ([1]; PC3, 72 hours, 4.63 μM): −52.74%
Cell death (%) MEAN ([1]; PC3, 72 hours, 4.63 μM): −46.19%
Cell death #1 (%) ([1]; PC3, 72 hours, 13.89 μM): −33.31%
Cell death #2 (%) ([1]; PC3, 72 hours, 13.89 μM): −22.56%
Cell death #3 (%) ([1]; PC3, 72 hours, 13.89 μM): −34.75%
Cell death (%) MEAN ([1]; PC3, 72 hours, 13.89 μM): −30.21%
Cell death #1 (%) ([1]; PC3, 72 hours, 41.67 μM): 11.03%
Cell death #2 (%) ([1]; PC3, 72 hours, 41.67 μM): 11.96%
Cell death #3 (%) ([1]; PC3, 72 hours, 41.67 μM): 14.65%
Cell death (%) MEAN ([1]; PC3, 72 hours, 41.67 μM): 12.55%
Cell death #1 (%) ([1]; PC3, 72 hours, 125.00 μM): 64.88%
Cell death #2 (%) ([1]; PC3, 72 hours, 125.00 μM): 61.78%
Cell death #3 (%) ([1]; PC3, 72 hours, 125.00 μM): 57.24%
Cell death (%) MEAN ([1]; PC3, 72 hours, 125.00 μM): 61.30%
prostate cancer cell death as compared to enterolactone ([1]; PC3, at higher concentrations, 24 hours and 72 hours post-treatment): increased prostate cancer cell death as compared to enterolactone
Telomerase Activity RTA (%) (telomerase; MCF7, 2.5 μM, 24 Hours): 47.79%
Telomerase Activity RTA (%) (telomerase; MCF7, 2.5 μM, 48 Hours): 23.71%
Telomerase Activity RTA (%) (telomerase; MCF7, 2.5 μM, 72 Hours): 15.49%
Telomerase Activity RTA (%) (telomerase; MCF7, 5 μM, 24 Hours): 48.30%
Telomerase Activity RTA (%) (telomerase; MCF7, 5 μM, 48 Hours): 31.70%
Telomerase Activity RTA (%) (telomerase; MCF7, 5 μM, 72 Hours): 14.68%
Telomerase Activity RTA (%) (telomerase; MCF7, 10 μM, 24 Hours): 59.90%
Telomerase Activity RTA (%) (telomerase; MCF7, 10 μM, 48 Hours): 32.76%
Telomerase Activity RTA (%) (telomerase; MCF7, 10 μM, 72 Hours): 16.26%
Telomerase Activity RTA (%) (telomerase; MCF7, 20 μM, 24 Hours): 44.48%
Telomerase Activity RTA (%) (telomerase; MCF7, 20 μM, 48 Hours): 44.82%
Telomerase Activity RTA (%) (telomerase; MCF7, 20 μM, 72 Hours): 16.69%
Telomerase Activity RTA (%) (telomerase; MCF7, 40 μM, 24 Hours): 53.63%
Telomerase Activity RTA (%) (telomerase; MCF7, 40 μM, 48 Hours): 26.82%
Telomerase Activity RTA (%) (telomerase; MCF7, 40 μM, 72 Hours): 10.17%
IC50 (telomerase; MCF7, 24 h): > 40 µM
telomerase activity levels of treated groups compared to control (telomerase; MCF7, 24 hours): lower telomerase activity levels compared to control
Significance of RTA difference vs. control (telomerase; MCF7, 24 hours, 5 μM): YES (*)
Significance of RTA difference vs. control (telomerase; MCF7, 24 hours, 10 μM): YES (*)
Significance of RTA difference vs. control (telomerase; MCF7, 24 hours, 20 μM): YES (*)
Significance of RTA difference vs. control (telomerase; MCF7, 24 hours, 40 μM): YES (*)
IC50 (telomerase; MCF7, 48 h): 5.17 µM
telomerase activity levels of treated groups compared to control (telomerase; MCF7, 48 hours): lower telomerase activity levels compared to control, even more pronounced than 24 hours
Significance of RTA difference vs. control (telomerase; MCF7, 48 hours, 2.5 μM): YES (*)
Significance of RTA difference vs. control (telomerase; MCF7, 48 hours, 10 μM): YES (*)
Significance of RTA difference vs. control (telomerase; MCF7, 48 hours, 40 μM): YES (*)
IC50 (telomerase; MCF7, 72 h): > 40 µM
telomerase activity levels of treated groups compared to control (telomerase; MCF7, 72 hours): the group treated with the highest concentration presented lower RTA levels
Significance of RTA difference vs. control (telomerase; MCF7, 72 hours, 2.5 μM): YES (*)
telomerase inhibition effect (telomerase; MCF7 breast cancer cells): exhibit a telomerase inhibition effect

Source: US20250000843A1, “LIGNAN-INSPIRED COMPOUNDS, METHODS OF MAKING, AND USING THEREOF” (IOWAIBO, INC., priority 2023, published 2025)
